Data from patent US5116985A, “Isoquinoline derivatives and salts thereof” (priority 1989, dated 1992).
Counter-ions that a name gives are not always drawn.

Experiments:
[1] = target: T1, trypsin (Bos taurus, UniProt P00760); assay: Inhibition of trypsin hydrolysis of casein, in vitro; assay type: biochemical; settings: casein substrate, 20 μg of trypsin, 37° C., 10 minutes; read-out: 50% inhibitory concentration, substrate casein
T1 sequence (P00760 24-246): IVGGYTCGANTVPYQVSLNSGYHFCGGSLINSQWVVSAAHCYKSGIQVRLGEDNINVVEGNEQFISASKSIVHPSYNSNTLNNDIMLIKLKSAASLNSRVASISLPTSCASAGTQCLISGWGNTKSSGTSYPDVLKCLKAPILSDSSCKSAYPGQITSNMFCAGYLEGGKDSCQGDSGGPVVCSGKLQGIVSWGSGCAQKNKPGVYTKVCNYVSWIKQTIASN
Experimental: (§1) The inhibitory activity on trypsin in vitro was determined by the methods of Muramatsu, et al. described in the Journal of Biochemistry, 58, 214 (1965).

[2] = target: T1, trypsin; assay: Inhibition of trypsin hydrolysis of TAME (p-tosylarginine methyl ester), in vitro; assay type: biochemical; settings: TAME substrate, 1.5 μg of trypsin, 37° C., 10 minutes; read-out: 50% inhibitory concentration, substrate TAME
Experimental: as §1

| Compound | IC50 [1] [µM] | IC50 [2] [µM] |
| --- | --- | --- |
| CC(C)OC(=O)c1nccc2c(OC(=O)c3ccc(NC(=N)N)cc3)cccc12 [Compound No. 9, 1'-Isopropoxycarbonyl-5'-isoquinolyl 4-guanidinobenzoate hydrochloride] | 0.16 | 0.13 |
| CCOC(=O)c1nccc2c(OC(=O)c3ccc(NC(=N)N)cc3)cccc12 [Compound No. 7, 1'-Ethoxycarbonyl-5'-isoquinolyl 4-guanidinobenzoate hydrochloride] | 0.12 | 0.056 |
| N=C(N)Nc1ccc(C(=O)Oc2cccc3c(O)nccc23)cc1 [Compound No. 2, 1'-Hydroxy-5'-isoquinolyl 4-guanidinobenzoate methanesulfonate] | 0.14 | 0.064 |
| N=C(N)Nc1ccc(C(=O)Oc2cccc3c(C(=O)OCc4ccccc4)nccc23)cc1 [Compound No. 11, 1'-Benzyloxycarbonyl-5'-isoquinolyl 4-guanidinobenzoate hydrochloride monohydrate] | 0.41 | 0.34 |
| CCCOC(=O)c1nccc2c(OC(=O)c3ccc(NC(=N)N)cc3)cccc12 [Compound No. 8, 1'-Propoxycarbonyl-5'-isoquinolyl 4-guanidinobenzoate methanesulfonate] | 0.16 | 0.096 |
| N=C(N)Nc1ccc(C(=O)Oc2cccc3cnccc23)cc1 [Compound No. 1, 5-Isoquinolyl 4-guanidinobenzoate dimethanesulfonate monohydrate] | 0.13 | 0.056 |
| N#Cc1nccc2c(OC(=O)c3ccc(NC(=N)N)cc3)cccc12 [Compound No. 3, 1'-Cyano-5'-isoquinolyl 4-guanidinobenzoate methanesulfonate monohydrate] | 0.14 | 0.056 |
| N=C(N)Nc1ccc(C(=O)Oc2cccc3c(C(N)=O)nccc23)cc1 [Compound No. 6, 1'-Carbamoyl-5'-isoquinolyl 4-guanidinobenzoate methanesulfonate hemihydrate] | 0.16 | 0.056 |
| N=C(N)Nc1ccc(C(=O)Oc2cccc3c(C(=O)O)nccc23)cc1 [Compound No. 5, 1'-Carboxy-5'-isoquinolyl 4-guanidinobenzoate quarterhydrate] | 0.17 | 0.064 |
| CN(C)C(=O)COC(=O)Cc1ccc(OC(=O)c2ccc(NC(=N)N)cc2)cc1 [Camostat mesylate, N,N-Dimethylcarbamoylmethyl -p-( -p-guanidinobenzoyloxy)phenylacetate methanesulfonate, reference compound] | 0.14 | 0.065 |
| CN(C)C(=O)COC(=O)c1nccc2c(OC(=O)c3ccc(NC(=N)N)cc3)cccc12 [Compound No. 12, 1'-(N,N-Dimethylcarbamoyl)methoxycarbonyl-5'-isoquinolyl 4-guanidinobenzoate hydrochloride] | 0.14 | 0.066 |
| CC(=O)c1nccc2c(OC(=O)c3ccc(NC(=N)N)cc3)cccc12 [Compound No. 4, 1'-Acetyl-5'-isoquinolyl 4-guanidinobenzoate hydrochloride] | 0.14 | 0.057 |
| CCCCOC(=O)c1nccc2c(OC(=O)c3ccc(NC(=N)N)cc3)cccc12 [Compound No. 10, 1'-Butoxycarbonyl-5'-isoquinolyl 4-guanidinobenzoate hydrochloride monohydrate] | 0.21 | 0.15 |
| CCOC(=O)c1ccc(OC(=O)CCCCCNC(=N)N)cc1 [Gabexate mesylate, Ethyl 4-(6-guanidinohexanoyloxy)benzoate methanesulfonate, reference compound] | 2.2 | 15 |
